Measurements as given in PubChem BioAssay (NCI).
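Cultured in 96-well plates, cells were exposed to test compound for 48 hours across five concentrations. GI50 is the concentration that inhibits growth by half. Definition used: TGI = concentration required for complete inhibition of growth.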

How the values were obtained:
Assay in all cases: growth of human tumour cells (NCI), 48 h
[1] = tested on: SF-295 CNS
[2] = tested on: UACC-257 melanoma
[3] = tested on: 786-0 renal
[4] = tested on: NCI-H460 lung
[5] = tested on: TK-10 renal
[6] = tested on: UACC-62 melanoma
[7] = tested on: HCC-2998 colon
[8] = tested on: T-47D breast
[9] = tested on: OVCAR-4 ovarian
[10] = tested on: HS 578T breast
[11] = tested on: HL-60(TB) leukemia
[12] = tested on: SF-539 CNS
[13] = tested on: HCT-116 colon
[14] = tested on: COLO 205 colon
[15] = tested on: SW-620 colon
[16] = tested on: NCI/ADR-RES ovarian
[17] = tested on: HOP-62 NSCLC
[18] = tested on: OVCAR-5 ovarian
[19] = tested on: SK-MEL-2 melanoma
[20] = tested on: SNB-19 CNS
[21] = tested on: HOP-92 NSCLC
[22] = tested on: EKVX NSCLC
[23] = tested on: SK-MEL-5 melanoma
[24] = tested on: HCT-15 colon
[25] = tested on: KM12 colon
[26] = tested on: HT29 colon
[27] = tested on: MOLT-4 leukemia
[28] = tested on: K-562 leukemia
[29] = tested on: A549 NSCLC
[30] = tested on: MDA-MB-231 breast
[31] = tested on: NCI-H226 lung
[32] = tested on: DU-145 prostate
[33] = tested on: NCI-H23 lung
[34] = tested on: CAKI-1 renal
[35] = tested on: SNB-75 CNS
[36] = tested on: MCF7 breast
[37] = tested on: CCRF-CEM leukemia
[38] = tested on: SN12C renal
[39] = tested on: SF-268 CNS
[40] = tested on: RXF 393 renal
[41] = tested on: SK-MEL-28 melanoma
[42] = tested on: OVCAR-8 ovarian
[43] = tested on: IGROV1 ovarian
[44] = tested on: BT-549 breast
[45] = tested on: M14 melanoma
[46] = tested on: PC-3 prostate
[47] = tested on: ACHN renal
[48] = tested on: MALME-3M melanoma
[49] = tested on: SK-OV-3 ovarian
[50] = tested on: A498 renal
[51] = tested on: UO-31 renal
[52] = tested on: NCI-H522 lung
[53] = tested on: SR leukemia
[54] = tested on: U251 CNS
[55] = tested on: RPMI-8226 leukemia
[56] = tested on: LOX IMVI melanoma
[57] = tested on: MDA-MB-435

Q: What does the source list for `O=C(Nc1ccc(F)cc1)c1cc(-c2ccc(F)cc2F)ccc1O`?
A: GI50 [1]: 2440 nM; TGI [1]: 7550 nM; GI50 [2]: 1610 nM; TGI [2]: 6970 nM; GI50 [3]: 3310 nM; TGI [3]: 16700 nM; GI50 [4]: 2980 nM; TGI [4]: 12800 nM; GI50 [5]: 2910 nM; TGI [5]: 23200 nM; GI50 [6]: 1390 nM; TGI [6]: 4610 nM; GI50 [7]: 3120 nM; TGI [7]: 42800 nM; GI50 [8]: 1750 nM; TGI [8]: 8140 nM; GI50 [9]: 2740 nM; TGI [9]: 45500 nM; GI50 [10]: 2790 nM; TGI [10]: 9620 nM; GI50 [11]: 1930 nM; TGI [11]: 5040 nM; GI50 [12]: 3650 nM; TGI [12]: 18500 nM; GI50 [13]: 2810 nM; TGI [13]: 12600 nM; GI50 [14]: 17100 nM; TGI [14]: 50100 nM; GI50 [15]: 3400 nM; TGI [15]: > 100000 nM; GI50 [16]: 2490 nM; TGI [16]: 8510 nM; GI50 [17]: 3130 nM; TGI [17]: 17100 nM; GI50 [18]: 3370 nM; TGI [18]: 37800 nM; GI50 [19]: 1860 nM; TGI [19]: 5570 nM; GI50 [20]: 3360 nM; TGI [20]: 31900 nM; GI50 [21]: 1470 nM; TGI [21]: 5240 nM; GI50 [22]: 2610 nM; TGI [22]: 9170 nM; GI50 [23]: 1560 nM; TGI [23]: 3630 nM; GI50 [24]: 2890 nM; TGI [24]: 13000 nM; GI50 [25]: 3030 nM; TGI [25]: 9930 nM; GI50 [26]: 12700 nM; TGI [26]: > 100000 nM; GI50 [27]: 2570 nM; TGI [27]: 7900 nM; GI50 [28]: 2810 nM; TGI [28]: > 100000 nM; GI50 [29]: 3250 nM; TGI [29]: > 100000 nM; GI50 [30]: 2380 nM; TGI [30]: 6470 nM; GI50 [31]: 2880 nM; TGI [31]: 9820 nM; GI50 [32]: 3330 nM; TGI [32]: > 100000 nM; GI50 [33]: 2470 nM; TGI [33]: 7780 nM; GI50 [34]: 1950 nM; TGI [34]: 6000 nM; GI50 [35]: 1840 nM; TGI [35]: 5550 nM; GI50 [36]: 2310 nM; TGI [36]: 10100 nM; GI50 [37]: 3290 nM; TGI [37]: > 100000 nM; GI50 [38]: 2360 nM; TGI [38]: 8300 nM; GI50 [39]: 2670 nM; TGI [39]: > 100000 nM; GI50 [40]: 2750 nM; TGI [40]: 8040 nM; GI50 [41]: 2900 nM; TGI [41]: > 100000 nM; GI50 [42]: 3200 nM; TGI [42]: > 100000 nM; GI50 [43]: 3450 nM; TGI [43]: > 100000 nM; GI50 [44]: 2780 nM; TGI [44]: 18600 nM; GI50 [45]: 3320 nM; TGI [45]: > 100000 nM; GI50 [46]: 2780 nM; TGI [46]: 19800 nM; GI50 [47]: 2770 nM; TGI [47]: 8510 nM; GI50 [48]: 1920 nM; TGI [48]: 5640 nM; GI50 [49]: 2650 nM; TGI [49]: 8990 nM; GI50 [50]: 1470 nM; TGI [50]: 4130 nM; GI50 [51]: 2110 nM; TGI [51]: 8670 nM; GI50 [52]: 1830 nM; TGI [52]: 8300 nM; GI50 [53]: 2930 nM; TGI [53]: 80300 nM; GI50 [54]: 3230 nM; TGI [54]: 24600 nM; GI50 [55]: 1740 nM; TGI [55]: 6380 nM

Q: Which results are given for `IP(CCCCCCCCCCSc1n(Cc2ccc3ccccc3c2)c(-c2ccccc2)c(-c2ccccc2)[n+]1Cc1ccc2ccccc2c1)(c1ccccc1)(c1ccccc1)c1ccccc1`?
A: GI50 [1]: 1570 nM; TGI [1]: 3100 nM; GI50 [2]: 412 nM; TGI [2]: 1700 nM; GI50 [6]: 562 nM; TGI [6]: 2020 nM; GI50 [7]: 531 nM; TGI [7]: 1920 nM; GI50 [10]: 670 nM; TGI [10]: 3960 nM; GI50 [11]: 189 nM; TGI [11]: 438 nM; GI50 [12]: 771 nM; TGI [12]: 2150 nM; GI50 [15]: 794 nM; TGI [15]: 2160 nM; GI50 [56]: 553 nM; TGI [56]: 1820 nM; GI50 [16]: 3940 nM; TGI [16]: 23600 nM; GI50 [18]: 1500 nM; TGI [18]: 3000 nM; GI50 [21]: 240 nM; TGI [21]: 932 nM; GI50 [23]: 1100 nM; TGI [23]: 2310 nM; GI50 [24]: 1790 nM; TGI [24]: 3420 nM; GI50 [27]: 541 nM; TGI [27]: 2310 nM; GI50 [57]: 403 nM; TGI [57]: 1590 nM; GI50 [28]: 411 nM; TGI [28]: 1840 nM; GI50 [30]: 318 nM; TGI [30]: 1260 nM; GI50 [32]: 748 nM; TGI [32]: 2190 nM; GI50 [33]: 322 nM; TGI [33]: 1320 nM; GI50 [35]: 389 nM; TGI [35]: 1890 nM; GI50 [37]: 489 nM; TGI [37]: 1950 nM; GI50 [38]: 399 nM; TGI [38]: 1540 nM; GI50 [41]: 764 nM; TGI [41]: 2140 nM; GI50 [46]: 415 nM; TGI [46]: 1730 nM; GI50 [47]: 1820 nM; TGI [47]: 3640 nM; GI50 [49]: 714 nM; TGI [49]: 2170 nM; GI50 [50]: 1350 nM; TGI [50]: 3020 nM; GI50 [51]: 1820 nM; TGI [51]: 4890 nM; GI50 [53]: 347 nM; TGI [53]: 1720 nM; GI50 [55]: 337 nM; TGI [55]: 1500 nM
